The values below come from patent US20210261569A1, “FUSED HETEROCYCLIC DERIVATIVES HAVING SELECTIVE BACE1 INHIBITORY ACTIVITY” (Shionogi & Co., Ltd., priority 2018, published 2021).

Data set [1] concerns the target T1, recombinant BACE1 protein (Homo sapiens, UniProt P56817).
T1 construct: recombinant BACE1 protein in a final concentration of 0.04 μg/mL
The experiment in a line: BACE1 biochemical FRET based assay. The following applies: for Selectivity: BACE2 IC50 relative to BACE1 IC50; for IC50: FRET, pH 5.0, 450 min at room temperature. The text has this: This assay is a Fluorescence Resonance Energy Transfer Assay (FRET) based assay. The substrate for this assay is an APP derived 13 amino acids peptide that contains the ‘Swedish’ Lys-Met/Asn-Leu mutation of the amyloid precursor protein (APP) beta-site secretase cleavage site. This substrate also contains two fluorophores: (7-methoxycoumarin-4-yl) acetic acid (Mca) is a fluorescent donor with excitation wavelength at 320 nm and emission at 405 nm and 2,4-dinitrophenol (Dnp) is a proprietary quencher acceptor. […] Upon cleavage by BACE1, the fluorophore Mca is separated from the quenching group Dnp, restoring the full fluorescence yield of the donor. The increase in fluorescence is linearly related to the rate of proteolysis.
Briefly in a 384-well format recombinant BACE1 protein in a final concentration of 0.04 μg/mL was incubated for 450 minutes at room temperature with 10 μm substrate in incubation buffer (final concentrations: 33.3 mM Citrate buffer pH 5.0, 0.033% PEG, 3% DMSO) in the absence or presence of compound. Next the amount of proteolysis was directly measured by fluorescence measurement at T=0′-120′ and T=450′ (excitation at 320 nm and emission at 405 nm). Results were expressed in RFU (Relative Fluorescence Units), as difference between T450 and Tx (Tx is chosen depending on the reaction speed between 0 and 120 minutes).
A best-fit curve was fitted by a minimum sum of squares method to the plot of % Controlmin versus compound concentration. From this an IC50 value (inhibitory concentration causing 50% inhibition of activity) can be obtained.

Data set [2] has as its system Abeta 1-42 in cerebrospinal fluid (CSF). The experiment in a line: Pharmacology in the beagle dog: beta-amyloid profile in cerebrospinal fluid. The format is in vivo. The following applies: single dose 0.63 mg/kg. On the procedure: Test compounds were tested to evaluate the effect on the beta-amyloid profile in cerebrospinal fluid (CSF) of dogs after a single dose, in combination with pharmacokinetic (PK) follow up and limited safety evaluation.
In the case of compounds shown below, two or 4 beagle dogs (1 or 2 male, 1 or 2 female) were dosed with vehicle (1 mL/kg of an aqueous solution of 20% cyclodextrin) and 4 beagle dogs (2 males and 2 females) per dose group were dosed with test compound at the doses indicated in the following Table in an aqueous 20% cyclodextrin solution with a concentration in mg/mL identical to the dose given in mg/kg) on an empty stomach.
CSF was taken in conscious animals directly from the lateral ventricle via a cannula which was screwed in the skull and covered with subcutaneous tissue and skin, before and at 4, 8, 25 and 49 hours after dosing. Eight hours after dosing the animals got access to their regular meal for 30 minutes. Blood was taken for PK follow up (0.5, 1, 2, 4, 8, 25 and 49 hours) and serum samples for biochemistry were taken before and at 8 and 25 h after dosing. The CSF samples were used for measurement of Abeta 1-37, Abeta 1-38, Abeta 1-40 and Abeta 1-42.

The next data set is described as follows: Metabolic stability test. Format: in vitro ADME. The following applies: human liver microsomes 0.5 mg protein/mL, NADPH, 37° C. On the procedure: Using a commercially available pooled human liver microsomes, a compound of the present invention was reacted for a constant time, a remaining rate was calculated by comparing a reacted sample and an unreacted sample, thereby, a degree of metabolism in liver was assessed.
A reaction was performed (oxidative reaction) at 37° C. for 0 minute or 30 minutes in the presence of 1 mmol/L NADPH in 0.2 mL of a buffer (50 mmol/L Tris-HCl pH 7.4, 150 mmol/L potassium chloride, 10 mmol/L magnesium chloride) containing 0.5 mg protein/mL of human liver microsomes. After the reaction, 50 μL of the reaction solution was added to 100 μL of a methanol/acetonitrile=1/1 (v/v), mixed and centrifuged at 3000 rpm for 15 minutes. The compound of the present invention in the supernatant was quantified by LC/MS/MS or solid phase extraction (SPE)/MS, and a remaining amount of the compound of the present invention after the reaction was calculated, letting a compound amount at 0 minute reaction time to be 100%.
(In general: Liver microsomes are vesicles of endoplasmic reticulum, rich in cytochrome P450 enzymes.)

T1 sequence (P56817 46-501): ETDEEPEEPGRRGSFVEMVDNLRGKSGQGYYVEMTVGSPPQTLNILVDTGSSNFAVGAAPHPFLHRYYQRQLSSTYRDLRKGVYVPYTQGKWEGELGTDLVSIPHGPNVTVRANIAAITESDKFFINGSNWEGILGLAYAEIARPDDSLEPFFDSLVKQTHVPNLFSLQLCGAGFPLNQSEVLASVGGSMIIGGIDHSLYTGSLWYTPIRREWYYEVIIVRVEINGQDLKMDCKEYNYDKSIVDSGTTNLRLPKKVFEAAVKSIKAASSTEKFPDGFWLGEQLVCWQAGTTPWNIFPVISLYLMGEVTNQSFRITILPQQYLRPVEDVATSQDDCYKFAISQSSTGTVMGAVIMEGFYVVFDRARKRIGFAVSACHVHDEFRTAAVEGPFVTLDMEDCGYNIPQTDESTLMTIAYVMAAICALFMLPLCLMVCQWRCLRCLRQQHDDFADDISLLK

One may read the IC50 as the midpoint of a concentration-inhibition curve. For the molecule `C[C@@H]1OC[C@H]2[C@@H]1OC(N)=N[C@]2(CF)c1cc(NC(=O)c2cnc(OCF)cn2)ccc1F` [Compound I-082], in data set [1], the Selectivity stood at 28. Further, the IC50 in data set [1] came out at 0.011 µM. Moreover, the figures for the “% change in Abeta 1-42 from own baseline” value in data set [2] (8 h) and in data set [2] (24 h or 25 h) were −58% and −41%, respectively. Besides, in the data set “Metabolic stability test”, the “Remaining rate (%) at 30 min” value worked out at 92%.

Consider `NC1=N[C@](CF)(c2cc(NC(=O)c3cnc(OCF)cn3)ccc2F)[C@H]2[C@H](CC(F)F)OC[C@H]2O1` [Compound I-116], for which, in data set [1], the Selectivity is given as 31 and the IC50 came out at 0.013 µM. Also, in the data set “Metabolic stability test”, the “Remaining rate (%) at 30 min” value is 92%.
